Experimental data reported in US20060257481A1, “Sustained release formulation and dosing schedule of leukotriene synthesis inhibitor for human therapy” (deCODE Genetics ehf., priority 2005, published 2006).
Where two headings read alike, the source gives them in different places.

Tests used:
[1] = system: MMP-9; test: Study DG-031-201: MMP 9; assay type: in vivo, human; conditions: difference visit 2 to visit 5; 500 and 750 mg/day vs placebo cohort
Experimental: Patients who met the study eligebility criteria were enrolled and randomized into 3 different dose-level groups: (1) 64 patients on 250 mg/day therapy with DG-031 (250 mg q.d.), vs placebo; (2) 64 patients on 500 mg/day therapy with DG-031 (250 mg b.i.d.) vs placebo; and (3) 63 patients on 750 mg/day therapy with DG-031 (250 mg t.i.d.) vs placebo. […] All patients received 3 tablets per day. Treatment periods, 4 weeks in duration each, were separated by a 2-week washout period. The placebo tablets were identical in shape, color, form and taste to the active tablets except that they contained no active drug ingredients. Treatment with DG-031 or placebo was in addition to the subject's standard care, including all medications and treatment plan as prescribed by the subject's cardiologist prior to enrolment. A total of 191 subjects were enrolled, with 172 completing all 8 visits or 8 patients short of the target of 180 patients.
All data were analyzed according to a pre-established statistical analysis plan (SAP) and by intention-to-treat (ITT). Each arm of the study, as well as pooled sets (combining dose levels), was considered for the primary analysis. […] The difference between DG-031 and placebo treatment was the primary outcome, assessed separately for each of the biomarkers. […]

[2] = system: CRP; test: Study DG-031-203 open label dose ranging: serum CRP; assay type: in vivo, human
Experimental: The study also collected information on the dose-related effect of DG-031 on capacity for LTB4 production (ex vivo), plasma MPO, and serum-CRP. […] The pattern observed supported a concentration dependent pharmacologic effect of DG-031 on capacity for LTB4 production measured ex vivo. The effects on LTB4 production amounted to a 30% (p=0.016) and 25% (p=0.094) reduction with the 375 mg BID and 250 mg TID doses, respectively.

[3] = system: MPO release by neutrophils and other cells in human whole blood; test: In vitro MPO release in human whole blood after ionomycin stimulation; assay type: cell-based
Experimental: Neutrophils and other cells in human whole blood respond in vitro to activation by a calcium ionophore (e.g., ionomycin), with an increase in LTB4 production and with coupled release of MPO stimulated in part by LTB4 production in the assay. The effect of DG-031 on the capacity for production of LTB4 in vitro after ionomycin stimulation was evaluated at concentrations ranging from 0.1 μM up to 240 μM.

[4] = Clinical studies, safety and tolerability in CAD patients; assay type: in vivo, human
Experimental: Previous clinical studies administered the dosages of DG-031 either in a single dose (QD) or twice a day (BID)
A total daily dose of 750 mg, dosed at 250 mg TID, provides a preferable PK/PD relationship (inhibition of LTB4) and efficacy in terms of lowering other biomarkers of MI risk (i.e. MPO and CRP).

[5] = cited from earlier work; for Safety and tolerability: asthma patients
[6] = clinical; conditions: human, in vivo
Experimental: Measurements of plasma DG-031 can be carried out by methods that are standard in the art. […] The DG-031 is then measured by liquid chromatography and/or mass spectrometry and the measured concentration is compared to a standard curve.
After completion of the double-blind study reported herein an open-label randomized study was conducted in an independent cohort but with same eligibility criteria and measuring several of the same biomarkers. […] Each patient was on drug for 8 days; there was no placebo group. The primary objective of this study was to determine pharmacokinetic parameters of DG-031 in three different doses, as well as to assess the pharmacokinetic/pharmacodynamic relationship between DG-031, LTB4 and MPO.
The additional phase II study was conducted to compare a 750 mg total daily dose administered in a BID or TID dosing regimen.

## O=C(O)[C@@H](c1ccc(OCc2ccc3ccccc3n2)cc1)C1CCCC1 [DG-031, (R)-(+)-alpha-cyclopentyl-4-(2-quinolinylmethoxy)-Benzeneacetic acid]
[1]
  Carry-over effect, MMP 9: −0.04
[2]; 250 mg TID, CRP above median (1.4 mg/L) at entry, P=0.014
  Reduction in CRP levels, high CRP group: 48%
[2]; 250 mg TID, St. 203, 1 wk, p = 0.07
  CRP: 37% (St. 203)
[2]; 250 mg TID, after one week of therapy, all subjects, follow-up study 203, [9%,57%]
  Reduction of serum CRP: 38%
[2]; 375 mg BID, Study 203
  CRP: No effect
[2]; 375 mg BID, all subjects, one week, p=0.94
  Change in CRP: −1%
[2]; 375 mg BID, p=0.16, not significant
  Reduction of CRP, high CRP group: 31%
[2]; 375 mg QD, Study 203, 1 wk, p = 0.021
  CRP: −28%
[3]
  Concentration at which MPO release is maximally inhibited in vitro: ~2 μg/ml and about 6 μM
[4]; 250 mg QD, 375 mg QD, 250 mg BID, 375 mg BID and 250 mg TID
  Safety and tolerability: safe and well tolerated
[4]; total daily doses 375 mg and 750 mg, less than 8 days
  Safety and tolerability: safe and well tolerated
[4]; total daily doses 250, 500 and 750 mg, 128 days
  Safety and tolerability: safe and well tolerated
[5]; 750 mg/day, previous phase I-II human studies in asthma
  Tolerability: well tolerated
[5]; total daily dose 500 mg, greater than 45-365 days
  Safety and tolerability: safe and well tolerated
[5]; total daily dose 250, 500, 750 and 1000 mg, 14 days
  Safety and tolerability: safe and well tolerated
[5]; total daily doses 100, 200, 250, 500 and 1000 mg, 14-42 days
  Safety and tolerability: safe and well tolerated
[6]; Dominant half-life, humans
  half-life: 2.5 to 3 h
[6]; Slower half-life, fraction of the dose with slower elimination
  half-life: 10 to 15 h
